Measured values published in US20230128688A1, “DIRECTED CONJUGATION TECHNOLOGIES” (KLEO PHARMACEUTICALS, INC., priority 2019, published 2023).
Non-standard residues stand in square brackets, D forms with d. Residues, ends and D or L forms follow the SMILES beside them. *: point of attachment. FITC = O=C1OC2(c3ccc(O)cc3Oc3cc(O)ccc32)c2ccc(NC(=S)*)cc21; PEG8 = NCCOCCOCCOCCOCCOCCOCCOCCOCCC(=O)O; PEG6 = NCCOCCOCCOCCOCCOCCOCCC(=O)O; PEG2 = NCCOCCOCCC(=O)O; X7 = Fc1ccc(O*)cc1

System: daratumumab
Assay: Absorbance based DAR analysis of FITC conjugation to antibody
Format: biochemical
Protocol: In some embodiments, reaction partners, e.g., compounds of formula R-I or salts thereof ere dissolved in DMSO to 5 mM stock solution.
In some embodiments, reactions are set up with 300 micrograms of antibody. In some embodiments, various conditions, including various buffers, reagent equivalents, reaction time, reaction temperature and reaction concentrations can be utilized.
As an example, one reaction is 300 microliter reaction with 1 mg/mL of antibody in PBS. Peptide I-45 (1 microliter of 5 mM stock in DMSO, 2.5 molar equivalents relative to daratumumab) was diluted in 284 microliters of PBS buffer (10 mM phosphate, 150 mM sodium chloride, pH 7.4), then 15 microliters of daratumumab (20 mg/mL stock) was added to the reaction mixture followed by incubation at room temperature in the dark. After 4 h reaction buffer was exchanged using Amicon Ultra centrifuge filter (30 KDa MWCO, 0.5 mL volume). First, glycine buffer (100 mM, pH 2.1) was used for buffer exchange to ensure dissociation of target binding moieties after reaction. Then, phosphate buffer saline (pH 7.4) was used for further buffer exchange and storage.
In another example, a reaction is 300 microliter reaction with 1 mg/mL of antibody in borate buffer. Peptide I-44 (1.2 microliter of 5 mM stock in DMSO, 3.0 molar equivalents relative to daratumumab) was diluted in 284 microliters of Borate buffer (100 mM borate, pH 8.3), then 15 microliters of daratumumab (20 mg/mL stock) was added to the reaction mixture followed by incubation at room temperature in the dark. After 20 h reaction buffer was exchanged using Amicon Ultra centrifuge filter (30 KDa MWCO, 0.5 mL volume). First, glycine buffer (100 mM, pH 2.1) was used for buffer exchange to ensure dissociation of target binding moieties after reaction. Then, phosphate buffer saline (10 mM phosphate, 150 mM sodium chloride, pH 7.4) was used for further buffer exchange and storage.
In some embodiments, a useful technology is absorbance based DAR analysis. DAR (ratio of moieties of interest and target agent moieties (e.g., antibody agent moieties) was calculated for various antibody conjugates, e.g., in various reagent screening/assessment methods. Various agents comprising target binding moieties were assessed for conjugation efficiency as reaction partners with targets, e.g. protein agents such as antibody agents, compared to reagents with the same reactive groups but without target binding moieties. In various ratio determination ‘Drug’/moiety of interest is fluorescein isothiocyanate (FITC) dye conjugated to target agents, e.g., antibody agents. DAR molar ratio is defined as a ratio of moles of drug/moiety of interest to moles of target agent/antibody. Molarity is calculated from absorbance of FITC (A485) and antibody (A280) of conjugated product, and extinction coefficients of FITC and antibody using Beer-Lambert law. Correction coefficient 0.35 was used to correct for absorbance of FITC at 280 nm. Biotek Synergy H1 microplate reader and Take3 microvolume plate were used for absorbance measurements. Concentration of antibody was at least 3 mg/mL for optimal signal-to-noise in the readings. Certain target binding moieties that can provide higher DAR compared to equivalent controls (absence of target binding moieties) were selected as hits for further analysis. Certain assessment data were provided below as examples.

[1] = 2.5 M eq reagent, phosphate buffer saline pH 7.4, 4 h, 25 C, Drug = FITC
[2] = 30 M eq reagent, borate buffer pH 8.3, 20 h, 37 C, Drug = FITC
[3] = 10 M eq reagent, Bicarbonate buffer pH 8.3, 20 h, 25 C, Drug = FITC
[4] = 10 M eq reagent, Bicarbonate buffer pH 8.3, 2 h, 37 C, Drug = FITC
[5] = 5 M eq reagent, bicarbonate buffer pH 8.3, 20 h, 37 C, Drug = FITC
[6] = 2.5 M eq, 25 C, 4 h, PBS pH 7.4
[7] = 2.5 M eq, 25 C, 20 h, Borate pH 8.2
[8] = 2.5 M eq, 25 C, 20 h, PBS pH 7.4
[9] = 2.5 M eq, 25 C, 20 h, PBS pH 7.8
[10] = 2.5 M eq, 25 C, 20 h, PBS pH 8.0
[11] = 2.5 M eq, 25 C, 20 h, PBS pH 8.2
[12] = 2.5 M eq, 30 C, 20 h, PBS pH 7.4
[13] = 2.5 M eq, 37 C, 20 h, PBS pH 7.4

Structure (SMILES): CC(=O)N[C@@H](CC(=O)O)C(=O)N[C@H]1CSSC[C@@H](C(=O)N[C@H](C(=O)O)[C@@H](C)O)NC(=O)[C@H](Cc2c[nH]c3ccccc23)NC(=O)[C@H](C(C)C)NC(=O)[C@H](CC(C)C)NC(=O)[C@H](CCC(=O)O)NC(=O)CNC(=O)[C@H](CC(C)C)NC(=O)[C@H](CCNC(=O)c2ccc(OC(=O)CCOCCOCCOCCOCCOCCOCCNC(=S)Nc3ccc4c(c3)C(=O)OC43c4ccc(O)cc4Oc4cc(O)ccc43)cc2)NC(=O)[C@H](Cc2c[nH]c3ccccc23)NC(=O)[C@H](C)NC1=O [Compound I-42]
- DAR [1]: 0.13

Structure (SMILES): N=C(N)NCCC[C@H](NC(=O)CCOCCOCCNC(=O)[C@@H](CCC(=O)Oc1ccc(F)cc1)NC(=O)CCOCCOCCOCCOCCOCCOCCNC(=S)Nc1ccc2c(c1)C(=O)OC21c2ccc(O)cc2Oc2cc(O)ccc21)C(=O)N[C@@H](CCCNC(=N)N)C(=O)NCC(=O)N[C@@H](Cc1c[nH]c2ccccc12)C(=O)O [Compound I-26] ({FITC-PEG6}-[dE](X7)[PEG2]RRGW-OH)
- DAR [2]: −0.10

Structure (SMILES): N=C(N)NCCC[C@H](NC(=O)CCOCCOCCOCCOCCNC(=O)c1ccc(OC(=O)CCOCCOCCOCCOCCOCCOCCNC(=S)Nc2ccc3c(c2)C(=O)OC32c3ccc(O)cc3Oc3cc(O)ccc32)cc1)C(=O)N[C@@H](CCCNC(=N)N)C(=O)NCC(=O)N[C@@H](Cc1c[nH]c2ccccc12)C(=O)O [Compound I-22]
- DAR [3]: −0.18

Structure (SMILES): CCCCNc1nc(NCCOCCOCCC(=O)NCc2ccc(OC(=O)CCOCCOCCOCCOCCOCCOCCNC(=S)Nc3ccc4c(c3)C(=O)OC43c4ccc(O)cc4Oc4cc(O)ccc43)c(F)c2)nc(NCc2cccc(F)c2)n1 [Compound I-14]
- DAR [4]: 0.29

Structure (SMILES): O=C(CCCc1c[nH]c2ccccc12)NCc1cc(F)c(OC(=O)CCOCCOCCOCCOCCOCCOCCNC(=S)Nc2ccc3c(c2)C(=O)OC32c3ccc(O)cc3Oc3cc(O)ccc32)c(F)c1 [Compound I-16]
- DAR [5]: 0.30

Structure (SMILES): CC(=O)NCc1ccc(OC(=O)CCOCCOCCOCCOCCOCCOCCNC(=S)Nc2ccc3c(c2)C(=O)OC32c3ccc(O)cc3Oc3cc(O)ccc32)cc1 [Compound I-11]
- DAR [1]: 0.05
- DAR [4]: 0.14
- DAR [2]: 0.14

Structure (SMILES): Cc1nc2cc(C(=O)Nc3nc(-c4ccccn4)cs3)ccc2n1CCCC(=O)NCc1ccc(OC(=O)CCOCCOCCOCCOCCOCCOCCNC(=S)Nc2ccc3c(c2)C(=O)OC32c3ccc(O)cc3Oc3cc(O)ccc32)cc1 [Compound I-13]
- DAR [5]: 0.09

Structure (SMILES): Cc1nc2cc(C(=O)Nc3nc(-c4ccccn4)cs3)ccc2n1CCCC(=O)NCc1cc(F)c(OC(=O)CCOCCOCCOCCOCCOCCOCCNC(=S)Nc2ccc3c(c2)C(=O)OC32c3ccc(O)cc3Oc3cc(O)ccc32)c(F)c1 [Compound I-3]
- DAR [4]: 1.39

Structure (SMILES): COc1ccc(NC(=O)c2cn3ccsc3n2)cc1C(=O)NCCCC(=O)NCc1cc(F)c(OC(=O)CCOCCOCCOCCOCCOCCOCCNC(=S)Nc2ccc3c(c2)C(=O)OC32c3ccc(O)cc3Oc3cc(O)ccc32)c(F)c1 [Compound I-1]
- DAR [4]: 1.00

Structure (SMILES): CCCCNc1nc(NCCOCCOCCC(=O)NCc2cc(F)c(OC(=O)CCOCCOCCOCCOCCOCCOCCNC(=S)Nc3ccc4c(c3)C(=O)OC43c4ccc(O)cc4Oc4cc(O)ccc43)c(F)c2)nc(NCc2cccc(F)c2)n1 [Compound I-2]
- DAR [4]: 1.76

Structure (SMILES): N=C(N)NCCC[C@H](NC(=O)CCOCCOCCOCCOCCOCCOCCOCCOCCNC(=O)[C@H](CCC(=O)Oc1ccc(F)cc1)NC(=O)CCOCCOCCOCCOCCOCCOCCNC(=S)Nc1ccc2c(c1)C(=O)OC21c2ccc(O)cc2Oc2cc(O)ccc21)C(=O)N[C@@H](CCCNC(=N)N)C(=O)NCC(=O)N[C@@H](Cc1c[nH]c2ccccc12)C(=O)O [Compound I-27] ({FITC-PEG6}-E(X7)[PEG8]RRGW-OH)
- DAR [2]: −0.02

Structure (SMILES): CC(=O)N[C@@H](CC(=O)O)C(=O)N[C@H]1CSSC[C@@H](C(=O)N[C@H](C(=O)O)[C@@H](C)O)NC(=O)[C@H](Cc2c[nH]c3ccccc23)NC(=O)[C@H](C(C)C)NC(=O)[C@H](CC(C)C)NC(=O)[C@H](CCC(=O)O)NC(=O)CNC(=O)[C@H](CCC(=O)Nc2cc(OC(=O)CCOCCOCCOCCOCCOCCOCCOCCOCCNC(=S)Nc3ccc4c(c3)C(=O)OC43c4ccc(O)cc4Oc4cc(O)ccc43)ccc2F)NC(=O)[C@H](Cc2c[nH]cn2)NC(=O)[C@H](Cc2c[nH]c3ccccc23)NC(=O)[C@H](C)NC1=O [Compound I-24]
- DAR (5 M eq reagent, phosphate buffer saline pH 7.4, 4 h, 25 C, Drug = FITC): 0.05
- DAR [2]: 0.83

Structure (SMILES): N=C(N)NCCC[C@H](NC(=O)CCOCCOCCNC(=O)c1ccc(OC(=O)CCOCCOCCOCCOCCOCCOCCNC(=S)Nc2ccc3c(c2)C(=O)OC32c3ccc(O)cc3Oc3cc(O)ccc32)cc1)C(=O)N[C@@H](CCCNC(=N)N)C(=O)NCC(=O)N[C@@H](Cc1c[nH]c2ccccc12)C(=O)O [Compound I-23]
- DAR [3]: 0.14

Structure (SMILES): CCCCNc1nc(NCCOCCOCCC(=O)NCc2ccc(OC(=O)CCOCCOCCOCCOCCOCCOCCNC(=S)Nc3ccc4c(c3)C(=O)OC43c4ccc(O)cc4Oc4cc(O)ccc43)cc2)nc(NCc2cccc(F)c2)n1 [Compound I-15]
- DAR [4]: 0.74

Structure (SMILES): O=C(CCCc1c[nH]c2ccccc12)NCc1ccc(OC(=O)CCOCCOCCOCCOCCOCCOCCNC(=S)Nc2ccc3c(c2)C(=O)OC32c3ccc(O)cc3Oc3cc(O)ccc32)c(F)c1 [Compound I-17]
- DAR [5]: 0.37

Structure (SMILES): Cc1nc2cc(C(=O)Nc3nc(-c4ccccn4)cs3)ccc2n1CCCC(=O)NCc1ccc(OC(=O)CCOCCOCCOCCOCCOCCOCCNC(=O)Nc2ccc3c(c2)C(=O)OC32c3ccc(O)cc3Oc3cc(O)ccc32)c(F)c1 [Compound I-12]
- DAR [5]: 1.44

Structure (SMILES): CC(=O)N[C@@H](CC(=O)O)C(=O)N[C@H]1CSSC[C@@H](C(=O)N[C@H](C(=O)O)[C@@H](C)O)NC(=O)[C@H](Cc2c[nH]c3ccccc23)NC(=O)[C@H](C(C)C)NC(=O)[C@H](CC(C)C)NC(=O)[C@H](CCC(=O)O)NC(=O)CNC(=O)[C@H](CC(C)C)NC(=O)[C@H](CC(=O)NCc2ccc(OC(=O)CCOCCOCCOCCOCCOCCOCCOCCOCCNC(=S)Nc3ccc4c(c3)C(=O)OC43c4ccc(O)cc4Oc4cc(O)ccc43)c(F)c2)NC(=O)[C@H](Cc2c[nH]c3ccccc23)NC(=O)[C@H](C)NC1=O [Compound I-44]
- DAR [1]: 0.59
- DAR [6]: 0.59
- Fold (DAR I-44 over I-10) [6]: 7.79
- DAR [7]: 1.42
- Fold (DAR I-44 over I-10) [7]: 6.83
- DAR [8]: 1.09
- Fold (DAR I-44 over I-10) [8]: 16.08
- DAR [9]: 1.00
- Fold (DAR I-44 over I-10) [9]: 6.58
- DAR [10]: 0.99
- Fold (DAR I-44 over I-10) [10]: 15.39
- DAR [11]: 1.14
- Fold (DAR I-44 over I-10) [11]: 36.42
- DAR [12]: 1.15
- Fold (DAR I-44 over I-10) [12]: 21.43
- DAR [13]: 1.66
- Fold (DAR I-44 over I-10) [13]: 9.77
- FITC DAR (FIG. 16 (e): Borate buffer pH 8.2, 25 C, 20 h, 2.5 M eq): 0.21

Structure (SMILES): CCNC(=O)c1ccc(OC(=O)CCOCCOCCOCCOCCOCCOCCNC(=S)Nc2ccc3c(c2)C(=O)OC32c3ccc(O)cc3Oc3cc(O)ccc32)cc1 [Compound I-19]
- DAR [1]: 0.20

Structure (SMILES): COc1ccc(NC(=O)c2cn3ccsc3n2)cc1C(=O)NCCCC(=O)N[C@@H](CCC(=O)N(C)OC)C(=O)NCCOCCOCCOCCOCCOCCOCCOCCOCCN(CCCS(=O)(=O)O)C(=O)OC[C@H]1[C@@H]2CCc3c(nnn3CCOCCOCCOCCOCCNC(=S)Nc3ccc4c(c3)C(=O)OC43c4ccc(O)cc4Oc4cc(O)ccc43)CC[C@@H]21 [Compound I-20]
- DAR [3]: 0.72
